According to paper PMC4447944 (The Journal of Biological Chemistry, 2015):

Tests used:
hADRα1A = biological target: T1, hADRα1A (Homo sapiens, UniProt P35348); test: Calcium Mobilization Potentiation (Eurofins-CEREP); details: @ 10 μM
T1 sequence (P35348 1-466): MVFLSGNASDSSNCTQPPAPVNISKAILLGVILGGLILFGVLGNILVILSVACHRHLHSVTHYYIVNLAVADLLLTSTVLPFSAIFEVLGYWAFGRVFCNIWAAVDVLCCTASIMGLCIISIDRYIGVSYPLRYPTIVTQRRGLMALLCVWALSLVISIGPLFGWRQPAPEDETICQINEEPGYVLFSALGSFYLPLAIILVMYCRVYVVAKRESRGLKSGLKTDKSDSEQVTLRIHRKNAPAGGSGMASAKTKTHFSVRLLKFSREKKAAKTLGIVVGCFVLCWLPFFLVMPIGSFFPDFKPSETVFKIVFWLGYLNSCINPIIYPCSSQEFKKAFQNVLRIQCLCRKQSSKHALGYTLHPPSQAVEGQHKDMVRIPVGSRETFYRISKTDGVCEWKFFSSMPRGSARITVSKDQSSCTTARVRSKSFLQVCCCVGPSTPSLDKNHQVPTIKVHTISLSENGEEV

hMAP3K3 = biological target: T2, hMAP3K3 (Homo sapiens, UniProt Q99759); test: KINOMEscan; assay type: binding
T2 construct: purchased DiscoverX (KINOMEscan platform)

hERBB2 = biological target: T3, hERBB2 (Homo sapiens, UniProt P04626); test: KINOMEscan; assay type: binding
T3 construct: purchased DiscoverX

[1] = biological target: T4, hJAK1(JH2Dom.-pseudokinase) (Homo sapiens, UniProt P23458); test: KINOMEscan; assay type: binding
T4 construct: hJAK1(JH2Dom.-pseudokinase); purchased DiscoverX (KINOMEscan panel)
T4 sequence (P23458 583-855 limits assumed): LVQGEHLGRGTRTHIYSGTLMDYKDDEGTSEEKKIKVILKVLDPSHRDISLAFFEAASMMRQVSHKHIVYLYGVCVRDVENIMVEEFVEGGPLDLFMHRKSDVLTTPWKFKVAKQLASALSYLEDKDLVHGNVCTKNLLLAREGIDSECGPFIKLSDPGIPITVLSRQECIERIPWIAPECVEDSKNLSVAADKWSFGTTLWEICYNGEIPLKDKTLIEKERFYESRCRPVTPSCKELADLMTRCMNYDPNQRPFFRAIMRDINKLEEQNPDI

hBRAF = biological target: T5, hBRAF (Homo sapiens, UniProt P15056); test: KINOMEscan; assay type: binding
T5 construct: purchased DiscoverX

hADRβ2 = hADRβ2 (Homo sapiens, UniProt P07550); test: cAMP Potentiation (Eurofins-CEREP); details: @ 10 μM
hWEE1 = biological target: T6, hWEE1 (Homo sapiens, UniProt P30291); test: KINOMEscan; assay type: binding
T6 construct: purchased DiscoverX
T6 sequence (P30291 whole entry): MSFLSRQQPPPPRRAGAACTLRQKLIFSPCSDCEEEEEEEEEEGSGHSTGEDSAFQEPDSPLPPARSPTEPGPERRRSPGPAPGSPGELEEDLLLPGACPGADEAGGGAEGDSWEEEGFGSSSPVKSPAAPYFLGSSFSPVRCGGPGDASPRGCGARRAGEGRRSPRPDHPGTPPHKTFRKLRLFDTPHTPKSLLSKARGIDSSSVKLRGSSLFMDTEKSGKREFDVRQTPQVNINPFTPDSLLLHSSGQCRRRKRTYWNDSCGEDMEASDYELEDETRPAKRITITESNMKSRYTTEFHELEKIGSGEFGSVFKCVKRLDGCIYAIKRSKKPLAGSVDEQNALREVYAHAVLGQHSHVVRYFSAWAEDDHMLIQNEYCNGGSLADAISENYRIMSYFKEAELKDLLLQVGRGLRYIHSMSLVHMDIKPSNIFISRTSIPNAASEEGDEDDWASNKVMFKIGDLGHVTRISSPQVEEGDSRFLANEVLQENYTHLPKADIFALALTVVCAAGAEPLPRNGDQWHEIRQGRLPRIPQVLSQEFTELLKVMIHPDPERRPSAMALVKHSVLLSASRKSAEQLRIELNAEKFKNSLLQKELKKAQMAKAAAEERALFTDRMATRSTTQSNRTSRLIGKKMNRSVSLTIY

hSRC = biological target: T7, hSRC (Homo sapiens, UniProt P12931); test: KINOMEscan; assay type: binding
T7 construct: purchased DiscoverX (KINOMEscan platform)

hYSK4 = biological target: T8, hYSK4 (Homo sapiens, UniProt Q56UN5); test: KINOMEscan; assay type: binding
T8 construct: purchased DiscoverX

hEGFR(G719C) = biological target: T9, hEGFR(G719C) (Homo sapiens, UniProt P00533, G719C); test: KINOMEscan; assay type: binding
T9 construct: purchased DiscoverX
T9 sequence (P00533 25-1210 G719C): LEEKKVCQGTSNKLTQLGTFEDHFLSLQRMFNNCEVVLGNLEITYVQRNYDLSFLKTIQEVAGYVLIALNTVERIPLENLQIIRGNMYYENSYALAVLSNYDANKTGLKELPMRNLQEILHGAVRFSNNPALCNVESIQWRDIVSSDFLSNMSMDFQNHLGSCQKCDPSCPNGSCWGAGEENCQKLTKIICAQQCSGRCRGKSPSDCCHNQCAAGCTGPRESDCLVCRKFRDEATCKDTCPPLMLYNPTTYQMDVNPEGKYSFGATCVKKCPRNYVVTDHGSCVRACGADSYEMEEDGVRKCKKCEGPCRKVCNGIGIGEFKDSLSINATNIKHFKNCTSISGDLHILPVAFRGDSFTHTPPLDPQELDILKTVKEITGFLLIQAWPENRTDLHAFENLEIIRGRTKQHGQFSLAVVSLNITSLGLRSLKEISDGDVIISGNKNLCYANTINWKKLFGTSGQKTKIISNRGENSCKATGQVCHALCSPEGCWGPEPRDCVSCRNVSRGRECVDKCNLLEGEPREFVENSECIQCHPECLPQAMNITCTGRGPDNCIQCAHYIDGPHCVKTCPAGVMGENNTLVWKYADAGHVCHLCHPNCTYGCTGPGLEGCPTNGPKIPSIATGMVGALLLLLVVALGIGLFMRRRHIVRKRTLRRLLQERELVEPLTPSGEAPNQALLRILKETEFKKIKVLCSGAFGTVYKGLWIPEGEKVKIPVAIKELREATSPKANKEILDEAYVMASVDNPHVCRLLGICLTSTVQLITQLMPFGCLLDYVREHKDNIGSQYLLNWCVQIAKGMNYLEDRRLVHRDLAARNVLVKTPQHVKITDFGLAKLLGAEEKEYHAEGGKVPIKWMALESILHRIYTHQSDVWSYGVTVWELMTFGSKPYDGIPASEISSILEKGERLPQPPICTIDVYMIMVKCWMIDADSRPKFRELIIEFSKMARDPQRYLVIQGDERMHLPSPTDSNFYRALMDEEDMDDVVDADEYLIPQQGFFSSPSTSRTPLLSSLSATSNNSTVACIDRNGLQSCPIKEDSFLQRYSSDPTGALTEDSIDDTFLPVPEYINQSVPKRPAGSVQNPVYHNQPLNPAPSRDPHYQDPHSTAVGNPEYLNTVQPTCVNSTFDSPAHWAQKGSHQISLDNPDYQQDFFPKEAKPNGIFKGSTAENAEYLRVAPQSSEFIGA

hAURKB = biological target: T10, hAURKB (Homo sapiens, UniProt Q96GD4); test: KINOMEscan; assay type: binding
T10 construct: purchased DiscoverX
T10 sequence (Q96GD4 whole entry): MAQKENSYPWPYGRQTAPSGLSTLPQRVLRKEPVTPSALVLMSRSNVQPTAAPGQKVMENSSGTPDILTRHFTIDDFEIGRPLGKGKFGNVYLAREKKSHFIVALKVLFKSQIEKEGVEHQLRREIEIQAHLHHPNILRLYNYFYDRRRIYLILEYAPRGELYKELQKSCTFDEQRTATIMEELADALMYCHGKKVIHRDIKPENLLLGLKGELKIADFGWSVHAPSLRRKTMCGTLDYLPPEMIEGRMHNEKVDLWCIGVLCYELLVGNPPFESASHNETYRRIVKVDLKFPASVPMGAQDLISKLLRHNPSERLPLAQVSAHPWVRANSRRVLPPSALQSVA

hDRAK1 = biological target: T11, hDRAK1 (Homo sapiens, UniProt Q9UEE5); test: KINOMEscan; assay type: binding
T11 construct: purchased DiscoverX

hEGFR(G719S) = biological target: T12, hEGFR(G719S) (Homo sapiens, UniProt P00533, G719S); test: KINOMEscan; assay type: binding
T12 construct: purchased DiscoverX

hCAMK2A = biological target: T13, hCAMK2A (Homo sapiens, UniProt Q9UQM7); test: KINOMEscan; assay type: binding
T13 construct: purchased DiscoverX

hLRRK2 = biological target: T14, hLRRK2 (Homo sapiens, UniProt Q5S007); test: KINOMEscan; assay type: binding
T14 construct: purchased DiscoverX (KINOMEscan platform)
T14 sequence (Q5S007 whole entry): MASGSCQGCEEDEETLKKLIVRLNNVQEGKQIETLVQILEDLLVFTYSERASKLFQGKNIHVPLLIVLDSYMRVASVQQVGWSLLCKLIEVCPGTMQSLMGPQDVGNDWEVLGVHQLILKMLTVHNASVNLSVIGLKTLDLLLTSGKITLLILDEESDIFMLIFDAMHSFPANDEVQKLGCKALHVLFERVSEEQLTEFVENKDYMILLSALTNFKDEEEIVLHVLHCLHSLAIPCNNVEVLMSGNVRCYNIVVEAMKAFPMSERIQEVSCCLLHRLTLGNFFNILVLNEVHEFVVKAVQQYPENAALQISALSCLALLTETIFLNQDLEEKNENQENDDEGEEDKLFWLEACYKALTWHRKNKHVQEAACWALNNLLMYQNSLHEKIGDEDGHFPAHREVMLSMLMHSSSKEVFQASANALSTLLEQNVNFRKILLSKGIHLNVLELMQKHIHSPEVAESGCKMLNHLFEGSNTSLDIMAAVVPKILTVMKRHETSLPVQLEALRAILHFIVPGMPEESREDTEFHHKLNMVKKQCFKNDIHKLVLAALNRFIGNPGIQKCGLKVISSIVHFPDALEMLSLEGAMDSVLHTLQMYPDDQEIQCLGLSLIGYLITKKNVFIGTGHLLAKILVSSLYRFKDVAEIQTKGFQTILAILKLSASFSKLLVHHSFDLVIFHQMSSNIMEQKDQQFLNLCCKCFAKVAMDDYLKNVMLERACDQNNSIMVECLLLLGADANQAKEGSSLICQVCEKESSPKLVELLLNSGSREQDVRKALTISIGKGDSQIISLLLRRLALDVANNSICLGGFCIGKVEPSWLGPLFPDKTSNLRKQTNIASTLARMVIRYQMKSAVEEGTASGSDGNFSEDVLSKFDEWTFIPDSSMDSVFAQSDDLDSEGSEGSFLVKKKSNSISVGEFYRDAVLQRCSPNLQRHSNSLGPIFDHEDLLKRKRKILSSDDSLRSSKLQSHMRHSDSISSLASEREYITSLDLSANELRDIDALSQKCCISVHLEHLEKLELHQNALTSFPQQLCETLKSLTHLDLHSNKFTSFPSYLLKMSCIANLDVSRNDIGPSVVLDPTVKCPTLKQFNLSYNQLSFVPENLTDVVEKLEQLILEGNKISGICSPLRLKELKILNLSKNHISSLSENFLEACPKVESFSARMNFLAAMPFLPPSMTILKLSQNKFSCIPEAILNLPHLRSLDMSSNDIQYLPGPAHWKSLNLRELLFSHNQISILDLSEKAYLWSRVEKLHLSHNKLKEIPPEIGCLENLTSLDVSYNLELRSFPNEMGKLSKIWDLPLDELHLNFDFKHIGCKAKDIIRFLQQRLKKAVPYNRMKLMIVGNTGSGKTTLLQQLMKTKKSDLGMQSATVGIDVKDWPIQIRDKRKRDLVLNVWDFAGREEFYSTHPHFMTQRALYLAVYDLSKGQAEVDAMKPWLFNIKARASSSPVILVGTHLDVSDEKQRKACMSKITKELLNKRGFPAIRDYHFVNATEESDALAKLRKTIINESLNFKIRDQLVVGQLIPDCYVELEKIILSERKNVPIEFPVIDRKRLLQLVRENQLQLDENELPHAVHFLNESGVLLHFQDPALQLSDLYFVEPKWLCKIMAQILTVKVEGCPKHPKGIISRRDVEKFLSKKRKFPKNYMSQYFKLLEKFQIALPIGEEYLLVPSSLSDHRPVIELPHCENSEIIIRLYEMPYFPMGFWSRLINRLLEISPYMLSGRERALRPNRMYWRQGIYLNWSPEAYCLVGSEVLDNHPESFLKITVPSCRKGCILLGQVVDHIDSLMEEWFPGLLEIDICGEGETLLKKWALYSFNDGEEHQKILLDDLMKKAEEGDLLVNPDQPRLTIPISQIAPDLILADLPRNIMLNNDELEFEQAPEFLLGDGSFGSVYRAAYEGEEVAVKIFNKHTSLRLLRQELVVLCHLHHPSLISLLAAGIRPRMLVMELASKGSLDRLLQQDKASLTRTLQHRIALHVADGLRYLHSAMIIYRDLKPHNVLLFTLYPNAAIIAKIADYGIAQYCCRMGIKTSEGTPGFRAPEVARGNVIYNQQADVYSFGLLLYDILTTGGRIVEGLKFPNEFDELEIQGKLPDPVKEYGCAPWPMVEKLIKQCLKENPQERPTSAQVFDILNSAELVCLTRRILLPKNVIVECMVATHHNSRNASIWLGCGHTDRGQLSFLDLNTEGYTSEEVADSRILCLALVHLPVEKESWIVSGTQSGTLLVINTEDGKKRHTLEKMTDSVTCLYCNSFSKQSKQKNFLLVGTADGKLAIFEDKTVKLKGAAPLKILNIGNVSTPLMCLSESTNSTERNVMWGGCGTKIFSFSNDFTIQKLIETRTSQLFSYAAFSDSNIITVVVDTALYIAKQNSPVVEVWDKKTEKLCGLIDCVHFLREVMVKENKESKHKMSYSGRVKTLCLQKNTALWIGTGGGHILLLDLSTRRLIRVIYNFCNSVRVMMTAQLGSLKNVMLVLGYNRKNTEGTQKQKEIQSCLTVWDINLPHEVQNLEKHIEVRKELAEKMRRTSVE

hADORA3 = biological target: T15, hADORA3 (Homo sapiens, UniProt P0DMS8); test: β-arrestin Antagonist (Eurofins-CEREP); details: read-out: % Effect, Inhibition
T15 sequence (P0DMS8 1-318): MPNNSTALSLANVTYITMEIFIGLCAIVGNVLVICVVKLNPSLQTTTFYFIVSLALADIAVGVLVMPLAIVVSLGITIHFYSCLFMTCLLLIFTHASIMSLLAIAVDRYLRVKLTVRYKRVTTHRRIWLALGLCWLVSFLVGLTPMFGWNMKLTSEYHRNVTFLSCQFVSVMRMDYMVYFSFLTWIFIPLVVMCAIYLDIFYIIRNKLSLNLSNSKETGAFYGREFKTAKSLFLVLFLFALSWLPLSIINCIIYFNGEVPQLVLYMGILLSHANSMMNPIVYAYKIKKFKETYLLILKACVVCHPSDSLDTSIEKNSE

hM3 = hM3 (Homo sapiens, UniProt P20309); test: Calcium Mobilization Agonist (Eurofins-CEREP); details: @ 13.3 μM
hCHEK1 = biological target: T16, hCHEK1 (Homo sapiens, UniProt O14757); test: KINOMEscan; assay type: binding
T16 construct: purchased DiscoverX

hRET(M918T) = biological target: T17, hRET(M918T) (Homo sapiens, UniProt P07949, M918T); test: KINOMEscan; assay type: binding
T17 construct: purchased DiscoverX (KINOMEscan platform)

hRET(V804L) = biological target: T18, hRET(V804L) (Homo sapiens, UniProt P07949, V804L); test: KINOMEscan; assay type: binding
T18 construct: purchased DiscoverX (KINOMEscan platform)

hM2 = biological target: T19, hM2 (Homo sapiens, UniProt P08172); test: β-arrestin Potentiation (Eurofins-CEREP); details: @ 10 μM
T19 sequence (P08172 1-466): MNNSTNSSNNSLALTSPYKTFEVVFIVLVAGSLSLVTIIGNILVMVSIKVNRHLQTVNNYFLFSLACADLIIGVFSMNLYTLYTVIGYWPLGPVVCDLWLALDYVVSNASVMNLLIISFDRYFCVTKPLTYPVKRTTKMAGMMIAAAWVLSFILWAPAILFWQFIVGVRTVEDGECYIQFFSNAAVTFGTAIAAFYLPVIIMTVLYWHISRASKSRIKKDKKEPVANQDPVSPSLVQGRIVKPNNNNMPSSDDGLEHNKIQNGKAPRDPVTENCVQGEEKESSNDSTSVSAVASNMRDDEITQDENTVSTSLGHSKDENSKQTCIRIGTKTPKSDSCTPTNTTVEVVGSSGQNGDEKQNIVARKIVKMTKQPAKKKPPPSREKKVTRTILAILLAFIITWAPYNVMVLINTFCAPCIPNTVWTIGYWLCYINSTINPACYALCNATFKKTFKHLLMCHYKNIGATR

hABL1(pQ252H) = biological target: T20, hABL1(pQ252H) (Homo sapiens, UniProt P00519, Q252H); test: KINOMEscan; assay type: binding
T20 construct: purchased DiscoverX (KINOMEscan platform)

hSRMS = biological target: T21, hSRMS (Homo sapiens, UniProt Q9H3Y6); test: KINOMEscan; assay type: binding
T21 construct: purchased DiscoverX (KINOMEscan platform)

hEGFR(S752-I759del) = biological target: T22, hEGFR(S752-I759del) (Homo sapiens, UniProt P00533, DEL752-759); test: KINOMEscan; assay type: binding
T22 construct: purchased DiscoverX

Cc1cn(CCN2CCN(c3ccccc3-c3cc(C#N)cc(C(=O)NCCCN4CCCC4)c3)CC2)c2ccccc12 [LLY-507, 3-cyano-5-{2-[4-[2-(3-methylindol-1-yl)ethyl]piperazin-1-yl]-phenyl}-N-[(3-pyrrolidin-1-yl)propyl]benzamide]
-7.9%: % Effect, Potentiation (hADRα1A)
-32.2%: % Effect, Potentiation (hM2)
-1.4%: % Effect, Stimulation (hM3)
-27.2%: % Effect, Potentiation (hADRβ2)
> 20 µM: IC50 (hMAP3K3) | IC50 (hERBB2) | IC50 [1] | IC50 (hBRAF) | IC50 (hWEE1) | IC50 (hSRC) | IC50 (hYSK4) | IC50 (hEGFR(G719C)) | IC50 (hAURKB) | IC50 (hDRAK1) | IC50 (hEGFR(G719S)) | IC50 (hCAMK2A) | IC50 (hLRRK2) | IC50 (hCHEK1) | IC50 (hRET(M918T)) | IC50 (hRET(V804L)) | IC50 (hABL1(pQ252H)) | IC50 (hSRMS) | IC50 (hEGFR(S752-I759del))
-38.3%: inhibition at 10 µM (hADORA3)
